6 molecules from patent publication US10000500B2 (PROMEGA CORPORATION, priority 2016, dated 2018) can be followed below.

Type in all cases: biochemical
The target in data set [1] is T1, NANOLUC® Luciferase (Oplophorus gracilirostris, UniProt Q9GV45, A31E/A60N/A81I/F95D/I117V/K70R/L54V/L99Q/M102K/N193R/P142E/Q151K/Q38R/Q45L/V71I/Y165I). The data set is described as follows: Enzyme titration with NanoLuc luciferase (Example 9B). To be noted: FIG. 2B. Here is the method:
(§1) Renilla luciferase and NanoLuc Lucifersase were diluted to a concentration of 4 ug/ml (4 ng/uL) in OptiMEM+0.1% FBS. 10× serial dilutions of the luciferases were then prepared in OptiMEM+0.1% FBS. Each substrate was diluted to 100 uM into Renilla Glo Luciferase assay buffer (Promega Corporation). The 10× enzyme serial dilutions were then combined with the substrate dilutions, 50 ul mixed with 50 ul compound, and incubated for 1 minute at room temperature. Light output for each compound was measured on a GLOMAX®-Multi+ luminometer.

In data set [2] the target is T1, NANOLUC® Luciferase. The data set is described as follows: Spectral measurements in various buffers with NANOLUC luciferase (Example 10). The following applies: for shift of the NanoLuc luciferase spectral properties: FIGS. 3A-3C and 4A-4D; for NanoGlo (spectral peak, Table 4) / OptiMEM (spectral peak, Table 4) / High / Low / Peak / Width: NanoLuc; for NanoGlo (spectral peak, Table 4): NanoGlo buffer; for High / Low / Peak / Width: emission spectrum. Here is the method:
(§2) Each compound to be screened was diluted to a concentration of 100 uM (50 uM final concentration) in Renilla Glo Luciferase Assay buffer (Promega Corporation), NANO-GLO Luciferase Assay Buffer (Promega Corporation), or 20 uM (10 uM final) in OptiMEM+0.1% FBS. NANOLUC® luciferase and Renilla luciferase were serially diluted to 4, 40, and 400 ng/ml in OptiMEM+0.1% FBS. 50 ul of each compound dilution was mixed with 50 ul enzyme dilution and incubated for 1 minute at room temperature. Autoluminescence spectra of AS-353 was measured by adding 20 uM of substrate to OptiMEM+20% FBS and then 50 ul of this dilution was combined with 50 ul of OptiMEM+0.1% FBS. Spectral measurements were measured using a Tecan M-1000 luminometer. ([…]).

The target of data set [3] is T2, Renilla luciferase (Renilla reniformis, UniProt P27652).
T2 sequence (P27652 1-311): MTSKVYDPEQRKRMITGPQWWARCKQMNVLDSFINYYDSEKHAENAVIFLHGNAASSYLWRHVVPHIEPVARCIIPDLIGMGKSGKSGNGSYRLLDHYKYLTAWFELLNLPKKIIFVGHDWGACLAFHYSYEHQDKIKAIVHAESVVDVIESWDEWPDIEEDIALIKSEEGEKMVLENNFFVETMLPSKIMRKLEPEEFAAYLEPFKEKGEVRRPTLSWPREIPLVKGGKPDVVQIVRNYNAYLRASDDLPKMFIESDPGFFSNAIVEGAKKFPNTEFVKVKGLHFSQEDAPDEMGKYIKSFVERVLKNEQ
The data set is described as follows: Spectral measurements in various buffers with Renilla luciferase (Example 10). Also on record: Low / High / Width: unit not given here. Here is the method: as §2

The target in data set [4] is T1, NANOLUC® Luciferase. The data set is described as follows: Luminescence assay with purified NANOLUC luciferase (Example 7). The following applies: value marked (Autolum): autoluminescence.
Data set [5] addresses T2, Renilla luciferase. The data set is described as follows: Enzyme titration with Renilla luciferase (Example 9B). The following applies: FIG. 2B. Here is the method:
as §1

Substrate in data set [6]: O=c1c(Cc2ccco2)nc2c(Cc3ccccc3)[nH]c(-c3ccccc3)cn1-2
The data set is described as follows: Km and Vmax substrate titration with Renilla luciferase (Example 8). To be noted: other: Renilla luciferase 4 ng/ml; Renilla Glo buffer; Michaelis-Menten fit. Here is the method: Each compound to be screened was diluted to a concentration of 100 uM in Renilla Glo Luciferase Assay buffer (Promega Corporation) and then further diluted to 2×serial dilution in Renilla Glo Luciferase Assay Buffer. NANOLUC® luciferase and Renilla luciferase were diluted to a concentration of 4 ng/ml in OptiMEM+0.1% FBS. 50 ul of each compound dilution was then mixed with 50 ul of each enzyme dilution and incubated for 1 minute at room temperature. Light output for each compound was measured on a GLOMAX®-Multi+ luminometer. Km and Vmax were calculated for each enzyme/substrate combination using a GraphPad Prism Michaelis-Menten non-linear fit (FIGS. 1A-ID).

Setting [7] is: emission spectrum, Renilla/RenillaGlo.

T1 sequence (Q9GV45 28-196 with tags or gaps with the stated changes limits assumed): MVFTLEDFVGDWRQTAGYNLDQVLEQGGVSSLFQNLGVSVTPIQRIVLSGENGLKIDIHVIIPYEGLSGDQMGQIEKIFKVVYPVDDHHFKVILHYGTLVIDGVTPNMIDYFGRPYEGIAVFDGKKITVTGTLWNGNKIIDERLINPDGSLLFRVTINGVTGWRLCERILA

With `O=c1c(Cc2ccco2)nc2c(-c3ccnc4ccccc34)[nH]c(-c3ccc(O)cc3)cn1-2` [AS-360, 2-(furan-2-ylmethyl)-6-(4-hydroxyphenyl)-8-(quinolin-4-yl)imidazo[1,2-a]pyrazin-3(7H)-one], the “luminescence rank in the panel tested” value on NANOLUC® Luciferase [1] (NanoLuc luciferase) was “brightest luminescence in the panel tested”. In addition, the “brighter than both Renilla and NanoLuc luciferase with AS-361” value at NANOLUC® Luciferase [1] (NanoLuc luciferase, substrate 100 uM) was ~30 ×. On NANOLUC® Luciferase [2], the “shift of the NanoLuc luciferase spectral properties” value is on record as “shifted the NanoLuc® luciferase spectral properties to red”; the “NanoGlo (spectral peak, Table 4)” value was 589; the “OptiMEM (spectral peak, Table 4)” value is given as 583. On NANOLUC® Luciferase [2] (NanoGlo Buffer), the High was 647, the Low was determined as 538, the Peak was 589 and the Width was 109. Further, at NANOLUC® Luciferase [2] (OptiMEM + 0.1% FBS), the High was 646, the Low stood at 532, the Peak is reported as 583 and the Width turned out to be 114. Moreover, at Renilla luciferase [3] (Renilla, RenillaGlo buffer), the “RenillaGlo (spectral peak, Table 4)” value was 487. On Renilla luciferase [3] (setting [7]), this molecule registered a High of 553, a Low of 451, a Peak of 487 and a Width of 102.
Consider `O=c1c(Cc2ccco2)nc2c(-c3ccnc(F)c3)[nH]c(-c3ccnc(F)c3)cn1-2` [AS-295, 26,8-bis(2-fluoropyridin-4-yl)-2-(furan-2-ylmethyl)imidazo[1,2-a]pyrazin-3(7H)-one], for which the “λmax, nm (Autolum)” value at NANOLUC® Luciferase [4] is listed as 520 (Autolum) nm.
`N#Cc1ccc(-c2[nH]c(-c3cccs3)cn3c(=O)c(Cc4ccco4)nc2-3)s1` [AS-287, 5-(2-(furan-2-ylmethyl)-3-oxo-6-(thiophen-2-yl)-3,7-dihydroimidazo[1,2-a]pyrazin-8-yl)thiophene-2-carbonitrile]: the “λmax, nm (Autolum)” value at NANOLUC® Luciferase [4] is 556 (Autolum) nm.
With `N#Cc1ccc(-c2[nH]c(-c3ccc(O)cc3)cn3c(=O)c(Cc4ccco4)nc2-3)s1` [AS-353, 5-(2-(furan-2-ylmethyl)-6-(4-hydroxyphenyl)-3-oxo-3,7-dihydroimidazo[1,2-a]pyrazin-8-yl)thiophene-2-carbonitrile], the “lower RLU values with NanoLuc compared to AS-360” value at NANOLUC® Luciferase [1] (substrate 100 uM) was ~100 ×. Further, the “enzyme dependent luminescence with Renilla Luciferase” value on Renilla luciferase [5] was “only at the highest enzyme concentration”. Further, at NANOLUC® Luciferase [2], the “shift of the NanoLuc luciferase spectral properties” value was “shifted the NanoLuc® luciferase spectral properties to red”; the “NanoGlo (spectral peak, Table 4)” value stood at 592; the “OptiMEM (spectral peak, Table 4)” value was found to be 583. Also, at NANOLUC® Luciferase [2] (NanoGlo Buffer), the High amounted to 652, the Low stood at 550, the Peak turned out to be 592 and the Width worked out at 102. In addition, at NANOLUC® Luciferase [2] (OptiMEM + 0.1% FBS), the High is 637, the Low is recorded as 544, the Peak was 583 and the Width worked out at 93.
Consider `N#Cc1ccc(-c2[nH]c3ccccc3n3c(=O)c(Cc4ccco4)nc2-3)s1` [AS-293, 5-(2-(furan-2-ylmethyl)-1-oxo-1,5-dihydroimidazo[1,2-a]quinoxalin-4-yl)thiophene-2-carbonitrile], for which the “λmax, nm (Autolum)” value on NANOLUC® Luciferase [4] was 596 (Autolum) nm.

B1: Renilla luciferase (Renilla reniformis) (protein)
chain: T2 sequence (P27652 1-311)
Turning to B1, the Km in data set [6] was determined as 10.6 µM.

As usually defined, the Km is the concentration of substrate that gives half-maximal velocity.
